Reference: ChEMBL document CHEMBL3045422, “Synthesis, characterization, and antimicrobial screening of some Mannich base sydnone derivatives” (2013)
Converted amounts (≈) assume the structure as drawn.

How the values were obtained:
Candida albicans [1] = assay: microbe, parasite or virus in culture; assay type: functional
Pseudomonas aeruginosa [2] = assay: microbe, parasite or virus in culture; assay type: functional
Description: Antibacterial activity against Pseudomonas aeruginosa

Escherichia coli [3] = assay: microbe, parasite or virus in culture; assay type: functional
Description: Antibacterial activity against Escherichia coli

Staphylococcus aureus [4] = assay: microbe, parasite or virus in culture; assay type: functional
Description: Antibacterial activity against Staphylococcus aureus

Candida albicans [5] = assay: Antifungal activity against Candida albicans at 300 ug/ml; assay type: functional; settings: read-out: IZ
Pseudomonas aeruginosa [6] = assay: microbe, parasite or virus in culture; assay type: functional; settings: read-out: IZ
Description: Antibacterial activity against Pseudomonas aeruginosa at 300 ug/ml

Escherichia coli [7] = assay: microbe, parasite or virus in culture; assay type: functional; settings: read-out: IZ
Description: Antibacterial activity against Escherichia coli at 300 ug/ml

Bacillus subtilis [8] = assay: microbe, parasite or virus in culture; assay type: functional; settings: read-out: IZ
Description: Antibacterial activity against Bacillus subtilis at 300 ug/ml

Staphylococcus aureus [9] = assay: microbe, parasite or virus in culture; assay type: functional; settings: read-out: IZ
Description: Antibacterial activity against Staphylococcus aureus at 300 ug/ml

Bacillus subtilis [10] = assay: microbe, parasite or virus in culture; assay type: functional
Description: Antibacterial activity against Bacillus subtilis

Candida albicans [11] = test system: Candida albicans
Candida albicans [12] = test system: Candida albicans; remark: listed apart in the source

Compound	MIC (Candida albicans [1]) [mg/L]	MIC (Pseudomonas aeruginosa [2]) [mg/L]	MIC (Escherichia coli [3]) [mg/L]	MIC (Staphylococcus aureus [4]) [mg/L]	zone of inhibition at 300 µg/mL (Candida albicans [5]) [mm]	zone of inhibition at 300 µg/mL (Pseudomonas aeruginosa [6]) [mm]	zone of inhibition at 300 µg/mL (Escherichia coli [7]) [mm]	zone of inhibition at 300 µg/mL (Bacillus subtilis [8]) [mm]	zone of inhibition at 300 µg/mL (Staphylococcus aureus [9]) [mm]	MIC (Bacillus subtilis [10]) [mg/L]	MIC (Candida albicans [11]) [mg/L]	IZ (Candida albicans [12]) [mm]
COc1ccc(-[n+]2noc([O-])c2CNc2ccc(Br)cc2)cc1	200 (≈ 532 µM)	200 (≈ 532 µM)	300 (≈ 797 µM)	300 (≈ 797 µM)	15	13	12	13	10	200 (≈ 532 µM)	–	–
NYSTATIN	–	–	–	–	–	–	–	–	–	–	100	28
COc1ccc(-[n+]2noc([O-])c2Cn2cnc3ccccc32)cc1	300 (≈ 931 µM)	500 (≈ 1550 µM)	500 (≈ 1550 µM)	300 (≈ 931 µM)	12	10	10	11	11	300 (≈ 931 µM)	–	–
COc1ccc(-[n+]2noc([O-])c2Cn2c(-c3ccc(OC)c([N+](=O)[O-])c3)nc3ccccc32)cc1	200 (≈ 422 µM)	200 (≈ 422 µM)	200 (≈ 422 µM)	500 (≈ 1060 µM)	16	16	14	10	10	500 (≈ 1060 µM)	–	–
COc1ccc(-[n+]2noc([O-])c2CNc2ccc([N+](=O)[O-])cc2)cc1	200 (≈ 584 µM)	200 (≈ 584 µM)	200 (≈ 584 µM)	500 (≈ 1460 µM)	14	14	14	12	10	200 (≈ 584 µM)	–	–
COc1ccc(-[n+]2noc([O-])c2CNc2ccc(F)cc2)cc1	100 (≈ 317 µM)	300 (≈ 951 µM)	100 (≈ 317 µM)	200 (≈ 634 µM)	17	11	17	16	14	200 (≈ 634 µM)	–	–
COc1ccc(-[n+]2noc([O-])c2Cn2c(-c3ccc(Cl)cc3)nc3ccccc32)cc1	200 (≈ 462 µM)	500 (≈ 1160 µM)	200 (≈ 462 µM)	300 (≈ 693 µM)	14	10	15	12	12	300 (≈ 693 µM)	–	–
CCOc1ccc(NCc2c([O-])on[n+]2-c2ccc(OC)cc2)cc1	200 (≈ 586 µM)	100 (≈ 293 µM)	200 (≈ 586 µM)	40 (≈ 117 µM)	16	15	13	16	17	80 (≈ 234 µM)	–	–
COc1ccc(-[n+]2noc([O-])c2CNc2nc3ccc([N+](=O)[O-])cc3s2)cc1	100 (≈ 250 µM)	200 (≈ 501 µM)	300 (≈ 751 µM)	80 (≈ 200 µM)	17	16	12	18	16	40 (≈ 100 µM)	–	–
